From paper PMC2944077, “Placental Transfer of Conjugated Bisphenol A and Subsequent Reactivation in the Rat Fetus” (Environmental Health Perspectives, 2010)

Key:
[1] = system: placental trophoblast primary cell culture; test: Deconjugation of BPA-GA in placental trophoblast primary cell culture; type: in vitro ADME, rat; settings: data not shown
Experimental: After co-incubation with BPA-GA, we detected deconjugated BPA in fetal liver and to a small degree in fetal heart (Figure 6A). We observed β-Gase expression in both tissues (Figure 6B). […] The difference in deconjugation rates among tissues in the present study may reflect uptake into cells via transporters rather than through β-Gase expression. Another possibility is that BPA-GA is deconjugated in the placenta and then resultant BPA is transferred into the fetus by passive diffusion. Therefore, we also examined deconjugation of BPA-GA in placental trophoblast primary cell culture. […] The possibility of transfer of placental deconjugated BPA could not be excluded completely in this experiment. Further work is required to examine the tissue-specific deconjugation of BPA-GA and the possibility of BPA transfer.

[2] = system: fetal liver cells; test: Incubation of fetal primary cell cultures with BPA-GA (deconjugation); type: in vitro ADME, rat; settings: 25 μM BPA-GA, 37°C, 10-120 min, GD18.5
Experimental: (§1) Fetal liver and heart tissues, collected on GD18.5, were washed twice with cold phosphate-buffered saline (PBS). Tissues for two fetuses were combined in one tube and then minced in cold PBS and centrifuged for 5 min at 100 × g at 4°C. After removing the supernatant, the pellets were resuspended in 5 mL William’s medium (Sigma-Aldrich, Inc., St. Louis, MO, USA) containing collagenase (350 U; Wako Pure Chemical Industries, Ltd., Osaka, Japan) and DNase I (375 U; Roche Diagnostics, Basel, Switzerland) and incubated for 30 min at 37°C. After the incubation, samples were centrifuged for 5 min at 100 × g at 4°C, and the supernatants were removed. The remaining cells, which had been isolated from two fetuses, were resuspended in 200 μL William’s medium with or without 25 μM BPA-GA and incubated at 37°C for 10, 30, 60, or 120 min. At each time point, cells and medium were pooled and extracts were prepared for HPLC as described above, by adding the same volume of methanol. All experiments were repeated five times. Values express the mean ± SE.

[3] = system: fetal heart cells; test: as above; type: in vitro ADME, rat; settings: 25 μM BPA-GA, 37°C, 10-120 min, GD18.5
Experimental: as §1

[4] = Uterine perfusion of pregnant rats with glucuronide substrate; distribution in maternal-placental-fetal unit; type: in vivo, rat; settings: for Amount of substrate (glucuronide) detected in perfusate (maternal side): 2 μM substrate 20 min (120 nmol total) then 70 min without substrate
From the text: Additional details of the surgical procedure are available in the Supplemental Material (doi:10.1289/ehp.0901575). In this perfusion system, the perfusate pumped into the abdominal aorta is circulated through one uterine artery– placenta–fetus–uterine vein unit and drips from the drain tube inserted in the caudal vein. After the perfusion, dams and fetuses were euthanized by incision of the caudal vena cava under anesthesia and tissues were collected.
We used modified Krebs-Ringer’s buffer (mKRB; 126 mM NaCl, 3 mM KCl, 1.2 mM KH2PO4, 1.3 mM MgSO4, 2.4 mM CaCl2, 10 mM glucose, 26 mM NaHCO3, 2.5% dextran from Leuconostoc mesenteroides, and 3% Dextran 70) as the perfusate. The perfusate was pumped at a constant rate of 3 mL/min. First, we perfused four animals in a preliminary group with 10 μM BPA-GA for 20 min to determine whether BPA-GA is transferred into the fetus across the placenta. In this group, we performed a preliminary perfusion with mKRB for 5 min to wash away blood, followed by 20 min inflow of mKRB containing 10 μM BPA-GA. After the perfusion, the fetus and amniotic fluid were collected.
To elucidate the kinetics of perfused BPA-GA, we used another group of four animals to compare the amount of BPA-GA in maternal veins with that in fetal tissue. After preliminary perfusion with mKRB for 5 min, pregnant rats were perfused with mKRB containing 2 μM BPA-GA for 20 min. Then, mKRB without BPA-GA was perfused for 70 min (a total of 90 min). From the beginning of the BPA-GA perfusion, the perfusate that drained from the caudal vena cava was collected from each animal at 5-min intervals for 90 min. At the end of perfusate collection, the fetus, amnion, amniotic fluid, uterus, and placenta were collected. We also performed a control study using 1-naphthol-glucuronide (1-NA-GA; Nacalai Tesque Inc., Kyoto, Japan) as the substrate. Four pregnant rats were used in each perfusion group. […]
Perfusates collected from the caudal vena cava were collected after uterine perfusion and prepared for HPLC and LC/TOF-MS analysis. Each perfusate sample was mixed with a 4-fold volume of acetonitrile and centrifuged at 13,000 rpm for 5 min at 4°C; each supernatant was then analyzed by HPLC.
To prepare tissues for HPLC and LC/TOF-MS analysis, we first added each sample to 0.3 mL methanol; the sample was homogenized and then sonicated for 5 min. The products were centrifuged at 13,000 rpm for 5 min at 4°C, and the supernatants were concentrated by solid-phase extraction using an Oasis HLB Plus cartridge (Waters Corp., Milford, MA, USA). The extracts were then analyzed by HPLC.
We used an HPLC system (Tosoh Corp., Tokyo, Japan) that consisted of a dual pump (DP-8020), a fluorescent photometer (FS-8020), and a column oven (CO-8020). Samples were separated at 40°C using a reverse-phase column (Unison UK-C18; Imtakt Corp., Kyoto, Japan) at a flow rate of 1.0 mL/min under a linear gradient of solution A (methanol/water = 24/76 vol/vol with 10 mM ammonium acetate) and solution B (methanol) for 20 min. BPA-GA was detected at excitation/emission of 275/308 nm and 1-NA-GA was detected at excitation/emission of 283/336 nm. The results were recorded using LC-8020 integration software (Tosoh Corp.); the elution peaks of BPA and BPA-GA were noted and the concentrations compared with the standards.
LC/TOF-MS was performed using the HPLC system described above and LCT premier XE (Waters Corp.). The flow rate of HPLC was 0.3 mL/min, and BPA-GA was monitored at m/z 403–404 by TOF-MS. In the present study, the limits of detection of BPA and BPA-GA in LC/TOF-MS were both 20 pmol/mL (data not shown).

[5] = set-up: method as in Matthews et al. 2001; settings: ref Matthews et al. 2001; cited from earlier work
[6] = oral 10 mg/kg BPA to GD16.0 rat mothers; ref Domoradzki et al. (2003); cited from earlier work
[7] = set-up: method as in Krishnan et al. 1993; Nagel et al. 1997; settings: in vivo and in vitro; ref Krishnan et al. 1993; Nagel et al. 1997; cited from earlier work
[8] = system: CD-1 mice; set-up: method as in Timms et al. 2005; settings: 10 μg/kg BPA/day; ref Timms et al. 2005; cited from earlier work
[9] = system: UGT; settings: GD19.0; ref Matsumoto et al. 2002; cited from earlier work
[10] = system: UGT; test: UGT enzyme analysis using hepatic microsomes; type: in vitro ADME, rat
From the text: We examined UGT enzymatic activity using hepatic microsomes. We prepared the microsomes from rat liver and performed UGT enzyme analysis as described previously by [Daidoji et al (2006)]. See the Supplemental Material (doi:10.1289/ehp.0901575) for details.
Figure 6 Metabolism of BPA-GA in the fetus. Abbreviations: H, fetal heart; L, fetal liver; ML, maternal liver; P, placenta. (A) Time course showing concentration of deconjugated BPA (mean ± SE) in the extract of cultured fetal liver and heart cells (see “Materials and Methods” for details; n = 5). (B) Expression of β-Gase in the fetal liver and heart on GD18.5 by RT-PCR. (C) Expression of UGT isoforms in ML, P, L, and […] determined by RT-PCR. […] Values shown are the concentration (mean ± SE) of glucuronide conjugates in microsome protein (nmol/μg) after 30-min reaction time (n = 5).

[11] = 2 μM substrate 20 min then 70 min without substrate, GD18.5, mean ± SD, n = 4

CC(C)(c1ccc(O)cc1)c1ccc(O[C@@H]2O[C@H](C(=O)O)[C@@H](O)[C@H](O)[C@H]2O)cc1 [BPA-GA, BPA-glucuronide]
Deconjugation of BPA-GA in trophoblast cells [1]: did not observe deconjugation
Deconjugation of BPA-GA to BPA in fetal liver cells [2]: in a time-dependent manner
Deconjugation of BPA-GA to BPA in fetal heart cells [3]: to a much smaller degree
Share of the total amount of BPA-GA detected in the fetus ([4]; 2 μM BPA-GA 20 min, total perfusion 90 min): about 0.09%
BPA-GA in the collected perfusate after 70 min ([4]; 2 μM BPA-GA 20 min then perfusion without BPA-GA, n = 4): barely detected
Amount of substrate (glucuronide) detected in perfusate (maternal side) ([4]; GD18.5, mean ± SD, n = 4): 113.10 ± 6.92 nmol
Amount of deconjugated substrate (BPA or 1NA) detected in amniotic fluid [4, 11]: 31.35 ± 4.52 pmol
Amount of deconjugated substrate (BPA or 1NA) detected in fetus [4, 11]: 6.45 ± 1.45 pmol
Amount of substrate (glucuronide) detected in fetus [4, 11]: 109.26 ± 36.75 pmol
Deconjugated BPA in the fetus and amniotic fluid after preliminary perfusion ([4]; 10 μM BPA-GA, 20-min inflow, HPLC): detected
BPA-GA in the fetus and amniotic fluid after preliminary perfusion ([4]; 10 μM BPA-GA, 20-min inflow, HPLC, confirmed by LC/TOF-MS): detected
Biological activity of metabolite [5]: biologically inactive

O=C(O)[C@H]1O[C@@H](Oc2cccc3ccccc23)[C@H](O)[C@@H](O)[C@@H]1O [1-NA-GA, 1-naphthol-glucuronide, reference compound]
Amount of substrate (glucuronide) detected in perfusate (maternal side) ([4]; GD18.5, mean ± SD, n = 4): 111.77 ± 2.58 nmol

CC(C)(c1ccc(O)cc1)c1ccc(O)cc1 [BPA, Bisphenol A]
Concentration of BPA-GA in the fetus compared with that in maternal plasma [6]: approximately 0.1%
Estrogenic activity [7]: weak estrogenic activity
Effect of maternal exposure on prostate and urethra in male fetuses [8]: induces abnormal development of the prostate and urethra
UGT activity toward BPA in pregnant rats relative to nonpregnant adult rats [9]: about 70%
Fetal UGT activity toward BPA relative to nonpregnant adult rats ([10]; late pregnancy, in theory, from 20% of maternal and 70% pregnant/nonpregnant): < 15%
UGT activities in fetal liver microsomes compared with those in the mother ([10]; liver microsomes, GD18.5): quite low
Fetal UGT activity toward substrate relative to maternal microsomes ([10]; liver microsomes, GD18.5, 30-min reaction): about 20%
